Results from US5073551A, “Cephalosporin compounds” (Sagami Chemical Research Center, priority 1988, dated 1991).
Converted amounts (≈) assume the structure as drawn. Read-outs that look alike come from different tables or passages of the source.

Experiments:
S. aureus 209 P-JC = experiment: In-vitro antibacterial activity test, minimum growth inhibitory concentration (MIC), S. aureus; assay type: cell-based; conditions: Staphylococcus aureus, 209PJC, read-out: Minimum growth inhibitory concentration
P. mirabilis IFO 3849 = experiment: In-vitro antibacterial activity test, minimum growth inhibitory concentration (MIC), P. mirabilis; assay type: cell-based; conditions: Proteus mirabilis
[1] = In-vivo absorption test, serum concentration after oral administration (bioassay); set-up: species or system Wistar type rat (male); conditions: 50 mg/kg, fasted male Wistar rat, bioassay with Bacirus cereus S1101, read-out: Blood concentration / Serum concentration; for concentration at 1 h: 1 hr after oral administration; for concentration at 2 h: 2 hr after oral administration; for concentration at 4 h: 4 hr after oral administration
[2] = IFO3849, P. mirabilis IFO 3849, read-out: Minimum growth inhibitory concentration

For `Nc1nc(/C(=N/O)C(=O)NC2C(=O)N3C(C(=O)[O-])=C(/C=C\c4csnn4)CS[C@H]23)cs1.[Na+]` (stereo partly shown), the MIC (S. aureus 209 P-JC) was at most 0.025 µg/mL, the MIC (P. mirabilis IFO 3849; IFO3849, read-out: Minimum growth inhibitory concentration) was 0.1 µg/mL and the concentration at 1 h [1] was 4800 ng/mL. The concentration at 2 h [1] was 6000 ng/mL and the concentration at 4 h [1] was 6000 ng/mL.
In the case of `CCOC(=O)OC(C)OC(=O)C1=C(/C=C\c2csnn2)CSC2C(NC(=O)/C(=N\O)c3csc(N)n3)C(=O)N12` (racemic) [Example 22, DL-1-ethoxycarbonyloxyethyl 7-[(Z)-(2-aminothiazol-4-yl)-2-hydroxyiminoacetamido]-3-[(Z)-2-(1,2,3-thiadiazol-4-yl)vinyl]-3-cephem-4-carboxylate], the concentration at 1 h [1] is reported as 26600 ng/mL, the concentration at 2 h [1] is reported as 37800 ng/mL and the concentration at 4 h [1] is reported as 26700 ng/mL.
Work on `CC(=O)OC(C)OC(=O)C1=C(/C=C\c2csnn2)CSC2C(NC(=O)/C(=N\O)c3csc(N)n3)C(=O)N12` (racemic) [Example 23, DL-1-acetyloxyethyl 7-[(Z)-2-(2-aminothiazol-4-yl)-2-hydroxyiminoacetamido]-3-[(Z)-2-(1,2,3-thiadiazol-4-yl)vinyl]-3-cephem-4-carboxylate] yielded a concentration at 1 h [1] of 72100 ng/mL, a concentration at 2 h [1] of 56600 ng/mL and a concentration at 4 h [1] of 33400 ng/mL.
`C=CC1=C(C(=O)O)N2C(=O)C(NC(=O)/C(=N\OCC(=O)O)c3csc(N)n3)C2SC1` (stereo not shown) [A, reference compound] gave an MIC (S. aureus 209 P-JC; S. aureus 209 P-JC) of 12.5 µg/mL (≈ 27.6 µM) and an MIC (P. mirabilis IFO 3849; [2]) of at most 0.025 µg/mL.
`Cc1nnsc1/C=C\C1=C(C(=O)[O-])N2C(=O)C(NC(=O)/C(=N\O)c3csc(N)n3)[C@H]2SC1.[Na+]` (stereo partly shown) [Example 14, sodium 7-[(Z)-2-(2-aminothiazol-4-yl)-2-hydroxyiminoacetamido]-3-[(Z)-2-(4-methyl-1,2,3-thiadiazol-5-yl)vinyl]-3-cephem-4-carboxylate] gave an MIC (S. aureus 209 P-JC; S. aureus 209 P-JC) of 0.1 µg/mL and an MIC (P. mirabilis IFO 3849; [2]) of 0.39 µg/mL.
With `Cc1snnc1/C=C\C1=C(C(=O)[O-])N2C(=O)C(NC(=O)/C(=N\O)c3csc(N)n3)[C@H]2SC1.[Na+]` (stereo partly shown) [Example 18, sodium 7-[(Z)-2-(2-aminothiazol-4-yl)-2-hydroxyiminoacetamido]-3-[(Z)-2-(5-methyl-1,2,3-thiadiazol-4-yl)vinyl]-3-cephem-4-carboxylate] the MIC (S. aureus 209 P-JC; S. aureus 209 P-JC) was 0.2 µg/mL and the MIC (P. mirabilis IFO 3849; [2]) was 0.39 µg/mL.
`CC(C)(C)C(=O)OCOC(=O)C1=C(/C=C\c2csnn2)CS[C@@H]2C(NC(=O)/C(=N\O)c3csc(N)n3)C(=O)N12` (stereo partly shown) [Example 19, pivalyloxymethyl 7-[(Z)-(2-aminothiazol-4-yl)-2-hydroxyiminoacetamido]-3-[(Z)-2-(1,2,3-thiadiazol-4-yl)vinyl]-3-cephem-4-carboxylate] showed a concentration at 1 h [1] of 11300 ng/mL, a concentration at 2 h [1] of 9800 ng/mL and a concentration at 4 h [1] of 5800 ng/mL.
In the case of `Nc1nc(/C(=N/O)C(=O)NC2C(=O)N3C(C(=O)O)=C(/C=C\c4cnns4)CSC23)cs1` (stereo not shown) [Example 21], the MIC (S. aureus 209 P-JC; S. aureus 209 P-JC) is reported as 0.2 µg/mL (≈ 0.417 µM) and the MIC (P. mirabilis IFO 3849; [2]) is reported as 0.39 µg/mL (≈ 0.813 µM).
